In US10934283B2, “COMT inhibiting methods and compositions” (LIEBER INSTITUTE FOR BRAIN DEVELOPMENT, priority 2015, dated 2021):

The compounds below were run against T1, catechol-O-methyltransferase (COMT) (Homo sapiens, UniProt P21964) (assay: COMT inhibition assay (HTRF, production of SAH from SAM)). Details: table does not say MB-COMT or S-COMT.
T1 construct: M51A variant) was expressed in HEK 293F cells
T1 sequence (P21964 52-271 limits assumed): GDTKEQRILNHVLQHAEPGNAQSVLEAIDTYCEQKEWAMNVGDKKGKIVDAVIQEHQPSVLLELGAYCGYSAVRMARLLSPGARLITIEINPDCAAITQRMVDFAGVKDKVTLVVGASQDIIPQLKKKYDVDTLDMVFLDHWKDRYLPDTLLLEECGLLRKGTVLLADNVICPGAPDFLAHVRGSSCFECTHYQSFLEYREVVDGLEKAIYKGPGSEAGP
Type: biochemical
Protocol: The ability of compounds to inhibit the activity of catechol-O-methyltransferase (COMT) was determined by a homogenous time-resolved fluorescent (HTRF) assay (Lina et al, 2012; kit from CisBio, Codolet, France). This assay measures the production of S-adenosyl homocysteine (SAH) from the methyl donor S-adenosyl methionine. Recombinant human membrane bound COMT (MB-COMT; M51A variant) was expressed in HEK 293F cells using 293Fectin (Life Technologies, Gent, Belgium) and membranes prepared. The membranes were re-suspended in buffer (20 mM Tris/HCl pH 7; 10 mM glycerol; 2 mM MgCl2; 10 mM NaCl), aliquoted and stored at −80° C. Recombinant human soluble COMT(S-COMT), Val158 variant and a hexa-His tag on the N-terminus, was purified using Ni-NTA chromatography, the His tag removed and stored in buffer as above.
For the human MB-COMT assay, membranes (62 ng/well) were incubated with SAM (20 μM final, CisBio) and dopamine (1.5 μM final; Sigma H8502, Diegem, Belgium) in the presence or absence of varying concentrations (typically 10 concentrations ranging from 10 ? M to 0.1 nM) of compound for 40 min at 37° C. in 384-well microtiter plates (10 ? l per well final volume). The reaction was terminated by the addition of acylation buffer and the amount of SAH produced determined according to manufacturer's instructions. Specific inhibition as that inhibited by a high concentration of tolcapone and all experiments were validated using a control curve to tolcapone.
The human S-COMT assay was performed as above except that 0.15 ng enzyme/well was incubated with SAM ([…]) and dopamine (100 μM final) for 15 min at 37° C. and SAH production determined.
HTRF readings were performed using a Perkin Elmer Envision and results expressed as concentration of SAH produced using a standard curve. Results were analyzed using non-linear regression to the 4-parameter logistic equation and pIC50 (−log 10 concentration of drug which inhibits enzyme activity/SAH production by 50%) determined.

Row | Compound | Activity range (pIC50)
1 | Cc1cccc(C)c1CN1CCn2cc(O)c(=O)cc2C1 [Example 27, 2-(2,6-dimethylbenzyl)-7-hydroxy-1,2,3,4-tetrahydro-8H-pyrido[1,2-a]pyrazin-8-one] | +++ (three plus signs (+++) is associated with a pIC50 of above about 7)
2 | Cc1ccc(C)c(CN2CCn3cc(O)c(=O)cc3C2)c1 [Example 28, 2-(2,5-dimethylbenzyl)-7-hydroxy-1,2,3,4-tetrahydro-8H-pyrido[1,2-a]pyrazin-8-one] | +++ (three plus signs (+++) is associated with a pIC50 of above about 7)
3 | O=c1cc2n(cc1O)CCN(Cc1cc3ccccc3n1S(=O)(=O)c1ccccc1)C2 [Example 29, 7-hydroxy-2-{[1-(phenylsulfonyl)-1H-indol-2-yl]methyl}-1,2,3,4-tetrahydro-8H-pyrido[1,2-a]pyrazin-8-one] | +++ (three plus signs (+++) is associated with a pIC50 of above about 7)
4 | O=c1cc2n(cc1O)CCN(CCCc1ccccc1)C2 [Example 30, 7-hydroxy-2-(3-phenylpropyl)-1,2,3,4-tetrahydro-8H-pyrido[1,2-a]pyrazin-8-one] | ++ (two plus signs (++) is associated with a pIC50 of from about 6 to 7)
5 | CC(CN1CCn2cc(O)c(=O)cc2C1)c1ccccc1 (centres unmarked) [Example 31, 7-hydroxy-2-(2-phenylpropyl)-1,2,3,4-tetrahydro-8H-pyrido[1,2-a]pyrazin-8-one] | ++ (two plus signs (++) is associated with a pIC50 of from about 6 to 7)
6 | O=c1cc2n(cc1O)CCN(Cc1cc(F)cc(F)c1)C2 [Example 32, 2-(3,5-difluorobenzyl)-7-hydroxy-1,2,3,4-tetrahydro-8H-pyrido[1,2-a]pyrazin-8-one] | ++ (two plus signs (++) is associated with a pIC50 of from about 6 to 7)
7 | Cc1ccccc1CN1CCn2cc(O)c(=O)cc2C1 [Example 33, 7-hydroxy-2-(2-methylbenzyl)-1,2,3,4-tetrahydro-8H-pyrido[1,2-a]pyrazin-8-one] | +++ (three plus signs (+++) is associated with a pIC50 of above about 7)
8 | O=c1cc2n(cc1O)CCN(Cc1cc(-c3ccccc3)[nH]n1)C2 [Example 34, 7-hydroxy-2-[(5-phenyl-1H-pyrazol-3-yl)methyl]-1,2,3,4-tetrahydro-8H-pyrido[1,2-a]pyrazin-8-one] | ++ (two plus signs (++) is associated with a pIC50 of from about 6 to 7)
9 | O=c1cc2n(cc1O)CCN(Cc1cc(Cl)cc3c1OCCC3c1c[nH]cn1)C2 (centres unmarked) [Example 35, 2-{[6-chloro-4-(1H-imidazol-4-yl)-3,4-dihydro-2H-chromen-8-yl]methyl}-7-hydroxy-1,2,3,4-tetrahydro-8H-pyrido[1,2-a]pyrazin-8-one] | ++ (two plus signs (++) is associated with a pIC50 of from about 6 to 7)
10 | O=c1cc2n(cc1O)CCN(Cc1cccc(Oc3ccccc3)c1)C2 [Example 36, 7-hydroxy-2-(3-phenoxybenzyl)-1,2,3,4-tetrahydro-8H-pyrido[1,2-a]pyrazin-8-one] | +++ (three plus signs (+++) is associated with a pIC50 of above about 7)
11 | Cc1cccc(CN2CCn3cc(O)c(=O)cc3C2)c1C [Example 37, 2-(2,3-dimethylbenzyl)-7-hydroxy-1,2,3,4-tetrahydro-8H-pyrido[1,2-a]pyrazin-8-one] | +++ (three plus signs (+++) is associated with a pIC50 of above about 7)
12 | O=c1cc2n(cc1O)CCN(Cc1nc3ccccc3s1)C2 [Example 38, 2-(1,3-benzothiazol-2-ylmethyl)-7-hydroxy-1,2,3,4-tetrahydro-8H-pyrido[1,2-a]pyrazin-8-one] | ++ (two plus signs (++) is associated with a pIC50 of from about 6 to 7)
13 | O=c1cc2n(cc1O)CCN(Cc1ccccc1F)C2 [Example 39, 2-(2-fluorobenzyl)-7-hydroxy-1,2,3,4-tetrahydro-8H-pyrido[1,2-a]pyrazin-8-one] | +++ (three plus signs (+++) is associated with a pIC50 of above about 7)
14 | Cc1nn(C)c(Cl)c1CN1CCn2cc(O)c(=O)cc2C1 [Example 40, 2-[(5-chloro-1,3-dimethyl-1H-pyrazol-4-yl)methyl]-7-hydroxy-1,2,3,4-tetrahydro-8H-pyrido[1,2-a]pyrazin-8-one] | ++ (two plus signs (++) is associated with a pIC50 of from about 6 to 7)
15 | O=c1cc2n(cc1O)CCN(Cc1coc3ccccc3c1=O)C2 [Example 41, 7-hydroxy-2-[(4-oxo-4H-chromen-3-yl)methyl]-1,2,3,4-tetrahydro-8H-pyrido[1,2-a]pyrazin-8-one] | ++ (two plus signs (++) is associated with a pIC50 of from about 6 to 7)
16 | O=c1cc2n(cc1O)CCN(Cc1n[nH]c3ccccc13)C2 [Example 42, 7-hydroxy-2-(1H-indazol-3-ylmethyl)-1,2,3,4-tetrahydro-8H-pyrido[1,2-a]pyrazin-8-one] | ++ (two plus signs (++) is associated with a pIC50 of from about 6 to 7)
17 | O=c1cc2n(cc1O)CCN(Cc1c[nH]nc1-c1cccs1)C2 [Example 43, 7-hydroxy-2-{[3-(thiophen-2-yl)-1H-pyrazol-4-yl]methyl}-1,2,3,4-tetrahydro-8H-pyrido[1,2-a]pyrazin-8-one] | ++ (two plus signs (++) is associated with a pIC50 of from about 6 to 7)
18 | O=c1cc2n(cc1O)CCN(Cc1ccccc1C(F)(F)F)C2 [Example 44, 7-hydroxy-2-[2-(trifluoromethyl)benzyl]-1,2,3,4-tetrahydro-8H-pyrido[1,2-a]pyrazin-8-one] | +++ (three plus signs (+++) is associated with a pIC50 of above about 7)
19 | O=c1cc2n(cc1O)CCN(Cc1c[nH]nc1-c1ccccc1)C2 [Example 45, 7-hydroxy-2-[(3-phenyl-1H-pyrazol-4-yl)methyl]-1,2,3,4-tetrahydro-8H-pyrido[1,2-a]pyrazin-8-one] | ++ (two plus signs (++) is associated with a pIC50 of from about 6 to 7)
20 | COc1cccc(OC)c1CN1CCn2cc(O)c(=O)cc2C1 [Example 46, 2-(2,6-dimethoxybenzyl)-7-hydroxy-1,2,3,4-tetrahydro-8H-pyrido[1,2-a]pyrazin-8-one] | ++ (two plus signs (++) is associated with a pIC50 of from about 6 to 7)
21 | O=c1cc2n(cc1O)CCN(Cc1ccc(Oc3ccccc3)cc1)C2 [Example 47, 7-hydroxy-2-(4-phenoxybenzyl)-1,2,3,4-tetrahydro-8H-pyrido[1,2-a]pyrazin-8-one] | +++ (three plus signs (+++) is associated with a pIC50 of above about 7)
22 | O=c1cc2n(cc1O)CCN(Cc1ccc3c(c1)OCCO3)C2 [Example 48, 2-(2,3-dihydro-1,4-benzodioxin-6-ylmethyl)-7-hydroxy-1,2,3,4-tetrahydro-8H-pyrido[1,2-a]pyrazin-8-one] | ++ (two plus signs (++) is associated with a pIC50 of from about 6 to 7)
23 | CC(Cc1ccc2c(c1)OCO2)CN1CCn2cc(O)c(=O)cc2C1 (centres unmarked) [Example 49, 2-[3-(1,3-benzodioxol-5-yl)-2-methylpropyl]-7-hydroxy-1,2,3,4-tetrahydro-8H-pyrido[1,2-a]pyrazin-8-one] | ++ (two plus signs (++) is associated with a pIC50 of from about 6 to 7)
24 | COc1ccc(CN2CCn3cc(O)c(=O)cc3C2)cc1 [Example 50, 7-hydroxy-2-(4-methoxybenzyl)-1,2,3,4-tetrahydro-8H-pyrido[1,2-a]pyrazin-8-one] | ++ (two plus signs (++) is associated with a pIC50 of from about 6 to 7)
25 | COc1ccccc1CN1CCn2cc(O)c(=O)cc2C1 [Example 51, 7-hydroxy-2-(2-methoxybenzyl)-1,2,3,4-tetrahydro-8H-pyrido[1,2-a]pyrazin-8-one] | ++ (two plus signs (++) is associated with a pIC50 of from about 6 to 7)
26 | O=c1cc2n(cc1O)CCN(Cc1ccc(OCc3ccccc3)cc1)C2 [Example 52, 2-[4-(benzyloxy)benzyl]-7-hydroxy-1,2,3,4-tetrahydro-8H-pyrido[1,2-a]pyrazin-8-one] | +++ (three plus signs (+++) is associated with a pIC50 of above about 7)
